Assay: Solubilization of CoQ-10 in solvent (monoterpenes; prior liquid delivery solvents)
Assay type: physicochemical
Settings: without heating or with gentle warming; ambient temperatures
Excerpt: The present invention pertains to the surprising discovery that ubiquinone (CoQ-10) and related analogs thereof can be readily dissolved in varying concentrations in monoterpenes. Generally, until the present discovery, most CoQ-10 liquid delivery methods could solubilize only up to about 5% by weight of the CoQ-10 in the “solvent”. Typical solvents included various oils or the CoQ-10 was held in suspension. The present invention provides the ability to solubilize CoQ-10 in monoterpenes in concentrations of up to about 60% (weight to weight) without the need to aggressively heat the solution or with gentle warming. In particular, the solubilization of the CoQ-10 with monoterpenes can be accomplished at ambient temperatures.
Generally, until the present discovery, most CoQ-10 liquid delivery methods could solubilize only up at most about 10% by weight of the CoQ-10 in the solvent. Typical solvents included oils or the CoQ-10 was held in an aqueous suspension. Alternatively, the CoQ-10 was provided as a solid in a tablet or powder.
The present invention provides the ability to solubilize CoQ-10 and analogs thereof in monoterpenes, as defined herein, in concentrations of up to about 60% (weight to weight) without the need to heat the solution. In one aspect, the monoterpene solubilizes CoQ-10 from about 0.1 percent by weight to about 45 percent by weight. […]

CoQ-10 solubilized in monoterpenes: up to 60 % (weight to weight)
SMILES: COC1=C(OC)C(=O)C(C/C=C(\C)CC/C=C(\C)CC/C=C(\C)CC/C=C(\C)CC/C=C(\C)CC/C=C(\C)CC/C=C(\C)CC/C=C(\C)CC/C=C(\C)CCC=C(C)C)=C(C)C1=O [CoQ-10]

Source: patent US10314793B2, “Solubilized CoQ-10” (Soft Gel Technologies, Inc., priority 2003, dated 2019)
